{"source": "paper PMC11671526", "about": "“β-caryophyllene sensitizes hepatocellular carcinoma cells to chemotherapeutics and inhibits cell malignancy through targeting MAPK signaling pathway” (Frontiers in Pharmacology, 2024)", "test_system": "HepG2 cells", "assay": "CCK8 cell viability assay", "assay_type": "cell-based, human", "details": "Homo sapiens; HepG2, 48 h, individual treatment; read-out: IC50 (half maximal inhibitory concentration)", "description": "Cell viability assay using the CCK8 reagent (Bimake, Shanghai, China) was conducted according to the manufacturer’s instructions. The cell proliferation data were used to calculate the cell viability. Briefly, HepG2, SMMC-7721, and HL-7702 cells with a density of 5 × 10^3 cells/well were seeded into each well of 96-well plates and incubated overnight. […] After 48 h, 10 µL of CCK8 reagent was added to each well, followed by 2 h incubation at 37°C and measurement of absorbance at 450 nm using a microplate reader (Molecular Devices, LLC.). […] The effects of the combinatorial inhibition were visualized by isobologram analyses ([Tallarida, 2001]). […] A line was drawn to link the two IC50 points. […] The dots above, on, or below the line indicate the “antagonistic,” “additive” and “synergistic” effects, respectively. The same method was used to obtain the CI value for the cotreatment of BCP and DDP."}
{"molecule": "C=C1CC/C=C(\\C)CC[C@@H]2[C@@H]1CC2(C)C", "note": "[BCP, β-caryophyllene]", "values": [{"measurement": "IC50", "value": "194 ± 3.2", "unit": "µM"}]}
